Measurements reported in ChEMBL document CHEMBL1201862, “PubChem BioAssay data set” (2004).
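Assay format: 96-well plates, 48-hour exposure. Here, GI50 denotes the concentration required for 50% inhibition of growth.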 Active and inactive are the calls of the source. Rule as the data show it: active = GI50 up to about 1.1 µM and inactive = higher.

Key:
Assay in all cases: DTP human tumour cell line panel, 48 h
[1] = system: DLD-1
[2] = system: UO-31
[3] = system: OVCAR-5
[4] = system: NCI-H23
[5] = system: NCI-H460
[6] = system: OVCAR-3
[7] = system: RXF 393
[8] = system: SK-MEL-5
[9] = system: RXF 631
[10] = system: DMS-114
[11] = system: CAKI-1
[12] = system: KM-20L2
[13] = system: EKVX
[14] = system: HCT-116
[15] = system: Malme-3M
[16] = system: ACHN
[17] = system: HOP-62
[18] = system: SK-OV-3
[19] = system: SNB-75
[20] = system: HOP-18
[21] = system: TK-10
[22] = system: SNB-19
[23] = system: M14
[24] = system: OVCAR-8
[25] = system: SW-620
[26] = system: DMS-273
[27] = system: HCT-15
[28] = system: SN12C
[29] = system: HT-29
[30] = system: CCRF-CEM
[31] = system: U-251
[32] = system: 786-0
[33] = system: SK-MEL-2
[34] = system: SF-295
[35] = system: UACC-62
[36] = system: HOP-92
[37] = system: K562
[38] = system: KM12
[39] = system: HL-60
[40] = system: SF-268
[41] = system: COLO 205
[42] = system: NCI-H522
[43] = system: HCC 2998
[44] = system: A549
[45] = system: LOX IMVI
[46] = system: SF-539
[47] = system: A498
[48] = system: SK-MEL-28
[49] = system: IGROV-1
[50] = system: NCI-H226
[51] = system: LXFL 529
[52] = system: M19-MEL
[53] = system: OVCAR-4
[54] = system: SNB-78
[55] = system: UACC-257
[56] = system: RPMI-8226
[57] = system: SR
[58] = system: MOLT-4

`O=C(Cc1nc(-c2ccccc2)cc(=O)n1-c1ccccc1Cl)c1ccncc1` was tested, and the GI50 [1] was > 100 µM (inactive), the GI50 [2] was > 100 µM (inactive) and the GI50 [3] was > 100 µM (inactive). For the same compound, the GI50 [4] was > 100 µM (inactive), the GI50 [5] was > 100 µM (inactive) and the GI50 [6] was > 100 µM (inactive). For the same compound, the GI50 [7] was > 100 µM (inactive), the GI50 [8] was > 100 µM (inactive) and the GI50 [9] was > 100 µM (inactive). For the same compound, the GI50 [10] was > 100 µM (inactive), the GI50 [11] was > 100 µM (inactive) and the GI50 [12] was > 100 µM (inactive). For the same compound, the GI50 [13] was > 100 µM (inactive), the GI50 [14] was > 100 µM (inactive) and the GI50 [15] was > 100 µM (inactive). The GI50 [16] was > 100 µM (inactive), the GI50 [17] was > 100 µM (inactive) and the GI50 [18] was > 100 µM (inactive). For the same compound, the GI50 [19] was 25.2 µM (inactive), the GI50 [20] was > 100 µM (inactive) and the GI50 [21] was > 100 µM (inactive). For the same compound, the GI50 [22] was > 100 µM (inactive), the GI50 [23] was > 100 µM (inactive) and the GI50 [24] was > 100 µM (inactive). The GI50 [25] was > 100 µM (inactive), the GI50 [26] was > 100 µM (inactive) and the GI50 [27] was > 100 µM. The GI50 [28] was > 100 µM (inactive), the GI50 [29] was > 100 µM (inactive) and the GI50 [30] was > 100 µM (inactive). The GI50 [31] was > 100 µM (inactive), the GI50 [32] was > 100 µM (inactive) and the GI50 [33] was > 100 µM (inactive). The GI50 [34] was > 100 µM (inactive), the GI50 [35] was > 100 µM (inactive) and the GI50 [36] was > 100 µM (inactive). For the same compound, the GI50 [37] was > 100 µM (inactive), the GI50 [38] was > 100 µM (inactive) and the GI50 [39] was 9.1 µM (inactive). The GI50 [40] was > 100 µM (inactive), the GI50 [41] was > 100 µM (inactive) and the GI50 [42] was > 100 µM (inactive). For the same compound, the GI50 [43] was > 100 µM (inactive), the GI50 [44] was > 100 µM (inactive) and the GI50 [45] was > 100 µM (inactive). The GI50 [46] was > 100 µM (inactive), the GI50 [47] was > 100 µM (inactive) and the GI50 [48] was > 100 µM (inactive). The GI50 [49] was > 100 µM (inactive), the GI50 [50] was > 100 µM (inactive) and the GI50 [51] was > 100 µM (inactive). The GI50 [52] was > 100 µM (inactive), the GI50 [53] was > 100 µM (inactive) and the GI50 [54] was > 100 µM (inactive). The GI50 [55] was > 100 µM (inactive).
With `N#C[C@]12CC3(CC[C@H]1CC1(C2)OCCO1)OCCO3` the GI50 [1] was > 100 µM (inactive), the GI50 [2] was > 100 µM (inactive) and the GI50 [5] was > 100 µM (inactive). The GI50 [6] was > 100 µM (inactive), the GI50 [7] was > 100 µM (inactive) and the GI50 [8] was > 100 µM (inactive). The GI50 [9] was > 100 µM (inactive), the GI50 [10] was > 100 µM (inactive) and the GI50 [11] was > 100 µM (inactive). The GI50 [12] was > 100 µM (inactive), the GI50 [14] was > 100 µM (inactive) and the GI50 [15] was > 100 µM (inactive). For the same compound, the GI50 [16] was > 100 µM (inactive), the GI50 [17] was > 100 µM (inactive) and the GI50 [18] was > 100 µM (inactive). For the same compound, the GI50 [19] was > 100 µM (inactive), the GI50 [20] was > 100 µM (inactive) and the GI50 [21] was > 100 µM (inactive). The GI50 [56] was > 100 µM (inactive), the GI50 [22] was > 100 µM (inactive) and the GI50 [23] was > 100 µM (inactive). The GI50 [24] was > 100 µM (inactive), the GI50 [25] was > 100 µM (inactive) and the GI50 [26] was > 100 µM (inactive). For the same compound, the GI50 [27] was > 100 µM, the GI50 [28] was > 100 µM (inactive) and the GI50 [57] was > 100 µM (inactive). For the same compound, the GI50 [58] was > 100 µM (inactive), the GI50 [30] was > 100 µM (inactive) and the GI50 [31] was > 100 µM (inactive). The GI50 [32] was > 100 µM (inactive), the GI50 [33] was > 100 µM (inactive) and the GI50 [35] was > 100 µM (inactive). The GI50 [37] was > 100 µM (inactive), the GI50 [38] was > 100 µM (inactive) and the GI50 [39] was > 100 µM (inactive). The GI50 [40] was > 100 µM (inactive), the GI50 [41] was > 100 µM (inactive) and the GI50 [42] was > 100 µM (inactive). The GI50 [43] was > 100 µM (inactive), the GI50 [44] was > 100 µM (inactive) and the GI50 [46] was > 100 µM (inactive). For the same compound, the GI50 [47] was > 100 µM (inactive), the GI50 [48] was > 100 µM (inactive) and the GI50 [49] was > 100 µM (inactive). The GI50 [50] was > 100 µM (inactive), the GI50 [51] was > 100 µM (inactive) and the GI50 [52] was > 100 µM (inactive). For the same compound, the GI50 [53] was > 100 µM (inactive), the GI50 [54] was > 100 µM (inactive) and the GI50 [55] was > 100 µM (inactive).
